# Reference: patent US20230248646A1 (The General Hospital Corporation, priority 2013, published 2023)
# Where two headings read alike, the source gives them in different places.
# Legend:
# [1] = NGI cascade impactor test, single-use passive dry powder inhaler ([…], Aespira); format: physicochemical; conditions: NGI approx. 100 L/min for 2.4 seconds
# Description: Delivery of cromolyn by a single-use passive dry powder inhaler device was assessed. The passive inhaler device included an active particle dispersion mechanism ([…]) involving breath-driven beating of a mesh package containing the powder to be delivered. A blend containing disodium cromoglycate (DSCG) (Cambrex) and Lactohale LH300 lactose (Friesland Foods Domo) was prepared by blending in an Alpine Picoline high shear mixer (module Picomix) (Hosokawa Alpine, Augsburg, Germany) at a speed of 4000 rpm for 3 minutes. The blend contained 80:20 (wt/wt.) DSCG:lactose. Neat DSCG also was tested.
# [2] = NGI cascade impactor test, active dry powder inhaler with piezoelectric vibrator; format: physicochemical; conditions: NGI approx. 30 L/min for 2 seconds
# Text: The inhaler device included injection molded plastic components, electronics, a battery, and drug filled blisters. The inhaler included a lever arm, upon actuation of which the blister was placed in contact with a piezoelectric vibrator within the device and then pierced by needles. The inhaler also included an airflow sensor which automatically turned on the piezoelectric vibrator after a minimum inspiratory flow rate was exceeded. Activation of the piezoelectric vibrator […] powder particles and aerosolized them out of the blister and into the inspiratory airstream. The inhaler included visual feedback at the start of dosing and as confirmation of successful completion of dosing, thereby facilitating improved patient compliance. […] A blend containing disodium cromoglycate (DSCG) (Cambrex) and lactose monohydrate (DFE Pharma) (grade: lactohale LH201) was prepared by blending at a speed of 150 rpm for 15 minutes. The blend contained 60:40 (wt/wt.) DSCG:lactose. Neat DSCG also was tested.
# [3] = NGI impactor fractions with AZHALER dry powder inhaler; format: physicochemical; conditions: per 17.1 mg of API
# Text: AZHALER. […] It is a single-dose device used to deliver the inhalation powder to the patient's lung in form of an aerosol. The inhaler consists of a container, a valve, and a mouthpiece. In this study the low resistance model (80 L airflow resistance) was used. These device reaches a pressure drop of 4 kPa at c.80 L/min, and is suitable for use on a wide range of patient population i.e. including elderly, children and patients with severe respiratory impairment
# [4] = Phase 1 pharmacokinetic study of inhaled cromolyn, plasma; format: in vivo, human; conditions: for Tmax / Vd/F / AUC(0-inf) / Cmax / half-life: human; for half-life: read-out: apparent t1/2 range
# [5] = Initial characterization of manufactured cromolyn (particle size distribution); format: physicochemical
# Text: Cromolyn capsules for inhalation were manufactured by Pharmaterials, Ltd (Reading, UK). […] Therefore, there was a need to use hydrophobic excipient in the powder formulation to improve product performance and stability. Addition of hydrophobic excipient offers inherent resistance of dry powder inhalation formulations to negative effect of moisture to such formulations. Magnesium stearate was chosen as suitable hydrophobic excipient since it is commercially used in dry powder inhaler (DPI) products. […] Lactose monohydrate was additionally used as diluent for this case.
# [6] = 17.1 mg single inhaled dose, mean
# [7] = 34.2 mg double inhaled dose, mean
# [8] = inhaled or intranasal, 17.1 mg, 17.1 mg single inhaled dose, mean
# [9] = inhaled or intranasal, 34.2 mg, 34.2 mg double inhaled dose, mean
compound,measurement,setting,value
"O=C(O)c1cc(=O)c2c(OCC(O)COc3cccc4oc(C(=O)O)cc(=O)c34)cccc2o1 [DSCG:lactose 100:0, disodium cromoglycate]",Fine Particle Dose <5 μm,[1],430 µg
same,Fine Particle Dose <5 μm (% of initial dose),[1],9 % of initial dose
same,MMAD,[1],>4 μm
same,Stages 4 to 8,[1],150 µg
same,Stages 4 to 8 (% of initial dose),[1],3 % of initial dose
same,Fine Particle Dose <5 μm,[2],2321 µg
same,Fine Particle Fraction <5 μm,[2],59 % of delivered dose
same,Stages 4 to 8,[2],2098 µg
same,Stages 4 to 8 (% of initial dose),[2],42 % of initial dose
"O=C(O)c1cc(=O)c2c(OCC(O)COc3cccc4oc(C(=O)O)cc(=O)c34)cccc2o1 [cromolyn, 5,5′-(2-hydroxypropane-1,3-diyl)bis(oxy)bis(4-oxo-4H-chromene-2-carboxylic acid)]",cromolyn in the impactor fractions with <3 micron size particles (NGI stage 4-MOC),[3],4 to 5 mg
same,Cl/F,[4]; [6],108532.36 mL/h
same,T0.5,[4]; [6],1.75 ± 0.9 h
same,T0.5,"[4]; 17.1 mg single inhaled dose, mean, listed as Cromolyn",1.75 h
same,Cl/F,"[4]; 17.1 mg, Max",183363.7 mL/h
same,T0.5,"[4]; 17.1 mg, Max",3.7 h
same,T0.5,"[4]; 17.1 mg, Min","0.6, h"
same,Cl/F,"[4]; 17.1 mg, median",82640.18 mL/h
same,T0.5,"[4]; 17.1 mg, median",1.56 h
same,Cl/F,[4]; [7],132178.06 mL/h
same,T0.5,[4]; [7],1.91 ± 0.7 h
same,T0.5,"[4]; 34.2 mg double inhaled dose, mean, listed as Cromolyn",1.91 h
same,Cl/F,"[4]; 34.2 mg, median",130382.20 mL/h
same,T0.5,"[4]; 34.2 mg, median",1.80 h
same,Tmax,[4]; [8],22.8 min
same,Vd/F,[4]; [8],137 L
same,AUC(0-inf),"[4]; inhaled or intranasal, 17.1 mg, 17.1 mg single inhaled dose, mean, read-out: AUC0-inf",196 ± 97.3 ng·h/mL
same,Cmax,"[4]; inhaled or intranasal, 17.1 mg, 17.1 mg single inhaled dose, mean, read-out: Cmax",46.7 ng/mL
same,half-life,"[4]; inhaled or intranasal, 17.1 mg",36 to 222 min
same,AUC(0-inf),"[4]; inhaled or intranasal, 17.1 mg, single (17.1 mg) dose inhalation, range, read-out: AUC0-inf range",93.3 to 287 ng·h/mL
same,Cmax,"[4]; inhaled or intranasal, 17.1 mg, single dose (17.1 mg) inhalation, mean ± SD, read-out: average Cmax",46.7 ± 33 ng/mL
same,Cmax,"[4]; inhaled or intranasal, 17.1 mg, single dose (17.1 mg) inhalation, range, read-out: Cmax range",14 to 133 ng/mL
same,Tmax,[4]; [9],22.2 min
same,Vd/F,[4]; [9],330 L
same,AUC(0-inf),"[4]; inhaled or intranasal, 34.2 mg, 34.2 mg double inhaled dose, mean, read-out: AUC0-inf",285 ± 91.3 ng·h/mL
same,Cmax,"[4]; inhaled or intranasal, 34.2 mg, 34.2 mg double inhaled dose, mean, read-out: Cmax",96.8 ng/mL
same,AUC(0-inf),"[4]; inhaled or intranasal, 34.2 mg, double (34.2 mg) dose inhalation, range, read-out: AUC0-inf range",155 to 443 ng·h/mL
same,Cmax,"[4]; inhaled or intranasal, 34.2 mg, double dose (34.2 mg) inhalation, mean ± SD, read-out: average Cmax",96.8 ± 46.2 ng/mL
same,Cmax,"[4]; inhaled or intranasal, 34.2 mg, double dose (34.2 mg) inhalation, range, read-out: Cmax range",36.1 to 236 ng/mL
same,half-life,"[4]; inhaled or intranasal, double dose (34.2 mg) inhalation, range",42 to 228 min
same,Tmax,"[4]; inhaled, 17.1 mg, Max",60 min
same,Vd/F,"[4]; inhaled, 17.1 mg, Max",144 L
same,AUC(0-inf),"[4]; inhaled, 17.1 mg, Max, read-out: AUC0-inf",287 ng·h/mL
same,Cmax,"[4]; inhaled, 17.1 mg, Max, read-out: Cmax",133 ng/mL
same,Tmax,"[4]; inhaled, 17.1 mg, Min",6 min
same,Vd/F,"[4]; inhaled, 17.1 mg, Min",134 L
same,AUC(0-inf),"[4]; inhaled, 17.1 mg, Min, read-out: AUC0-inf",93.3 ng·h/mL
same,Cmax,"[4]; inhaled, 17.1 mg, Min, read-out: Cmax",14 ng/mL
same,Tmax,"[4]; inhaled, 17.1 mg, median",15 min
same,Vd/F,"[4]; inhaled, 17.1 mg, median",134 L
same,AUC(0-inf),"[4]; inhaled, 17.1 mg, median, read-out: AUC0-inf",207 ng·h/mL
same,Cmax,"[4]; inhaled, 17.1 mg, median, read-out: Cmax",36.2 ng/mL
same,Tmax,"[4]; inhaled, 34.2 mg, median",13.8 min
same,Vd/F,"[4]; inhaled, 34.2 mg, median",264 L
same,AUC(0-inf),"[4]; inhaled, 34.2 mg, median, read-out: AUC0-inf",262 ng·h/mL
same,Cmax,"[4]; inhaled, 34.2 mg, median, read-out: Cmax",76.5 ng/mL
same,initial characterization of the material,[5]; manufactured cromolyn,crystalline and hygroscopic material
same,particle size distribution d50,[5]; micronized cromolyn,< 5 μm
same,particle size distribution d90,[5]; micronized cromolyn,< 10 μm
